{"source": "patent US11072632B2", "about": "“Inhibitors of 17β-HSD1, 17β-HSD3 and 17β-HSD10” (UNIVERSITÉ LAVAL, priority 2011, dated 2021)", "key": {"[1]": {"target": "T1, 17β-HSD1 (Homo sapiens, UniProt P14061)", "T1 construct": "endogenous in cells; host or cells: T-47D", "T1 sequence (P14061 1-328)": "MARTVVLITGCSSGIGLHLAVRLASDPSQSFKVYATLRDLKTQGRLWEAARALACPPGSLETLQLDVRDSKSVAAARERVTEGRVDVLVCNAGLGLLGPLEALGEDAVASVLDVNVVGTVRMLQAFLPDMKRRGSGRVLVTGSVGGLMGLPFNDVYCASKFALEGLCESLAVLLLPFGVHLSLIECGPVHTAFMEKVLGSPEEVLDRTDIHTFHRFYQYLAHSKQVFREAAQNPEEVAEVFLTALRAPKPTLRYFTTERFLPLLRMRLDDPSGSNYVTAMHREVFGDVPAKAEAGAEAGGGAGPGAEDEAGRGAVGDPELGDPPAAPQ", "experiment": "Inhibition of 17β-HSD1 in T-47D intact cells (E1 into E2)", "assay_type": "cell-based", "conditions": "for inhibition at 0.01 µM: read-out: Inhibition % (0.01 μM)", "description": "T-47D cells were seeded in a 24-well plate (3000 cells/well) in medium supplemented with insulin (50 ng/mL) and 5% dextran-coated charcoal treated FBS rather than 10% FBS to remove remaining hormones. […] Each inhibitor was assessed in triplicate. After incubation, the culture medium was removed and labelled steroids (E1 and E2) extracted with 1 mL of diethyl ether. The organic phases were separated and evaporated to dryness using nitrogen. Residues were dissolved in dichloromethane and dropped on silica gel thin layer chromatography plates (EMD Chemicals Inc., Gibbstown, N.J., USA) and eluted with a toluene/acetone (4:1) solvent system. Substrate [^14C]-E1 and metabolite [^14C]-E2 were identified by comparison with reference steroids and quantified using a Storm 860 system (Molecular Dynamics, Sunnyvale, Calif., USA).\nT-47D cells were seeded in a 24-well plate (3000 cells/well) in 990 μL of medium supplemented with insulin (50 ng/mL) and 5% dextran-coated charcoal-treated FBS, which was used rather than untreated 10% FBS, to remove the remaining steroid hormones. […] The final concentration of ethanol in the well was adjusted to 0.1%. Additionally, 5 μL of a solution of [^14C]-estrone (American Radiolabeled Chemicals, Inc., St. Louis, Mo., USA) was added to obtain a final concentration of 60 nM. […] After incubation, the culture medium was removed and labeled steroids (E1 and E2) were extracted with 1 mL of diethyl ether. The organic phases were evaporated to dryness with nitrogen. Residues were dissolved in dichloromethane and dropped on silica gel thin layer chromatography plates (EMD Chemicals Inc., Gibbstown, N.J., USA) and eluted with toluene/acetone (4:1) as solvent system. Substrate [^14C]-E1 and metabolite [^14C]-E2 were identified by comparison with reference steroids (E1 and E2) and quantified using the Storm 860 system (Molecular Dynamics, Sunnyvale, Calif., USA)."}, "[2]": {"target": "T2, CYP3A4 (Homo sapiens, UniProt P08684)", "T2 construct": "purchased BD Biosciences", "T2 sequence (P08684 whole entry)": "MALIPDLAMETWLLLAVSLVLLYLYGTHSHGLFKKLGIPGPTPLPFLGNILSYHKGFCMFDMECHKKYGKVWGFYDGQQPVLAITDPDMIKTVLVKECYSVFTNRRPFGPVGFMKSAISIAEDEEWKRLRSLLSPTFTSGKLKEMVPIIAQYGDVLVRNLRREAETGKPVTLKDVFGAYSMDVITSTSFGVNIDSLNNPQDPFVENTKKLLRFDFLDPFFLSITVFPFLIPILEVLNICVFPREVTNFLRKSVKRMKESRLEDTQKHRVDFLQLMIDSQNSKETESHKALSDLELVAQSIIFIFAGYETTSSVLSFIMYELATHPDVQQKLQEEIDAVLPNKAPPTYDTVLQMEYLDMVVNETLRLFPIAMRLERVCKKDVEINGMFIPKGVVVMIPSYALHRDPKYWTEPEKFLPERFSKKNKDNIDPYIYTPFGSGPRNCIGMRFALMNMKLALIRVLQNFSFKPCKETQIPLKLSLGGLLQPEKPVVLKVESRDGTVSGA", "experiment": "Inhibition of CYP3A4 (P450 Inhibition Kit CYP3A4/DBF)", "assay_type": "in vitro ADME"}, "[3]": {"tested_on": "MCF-7 cells", "experiment": "Estrogenic activity in MCF-7 cells", "assay_type": "cell-based, human", "conditions": "7 days, concentrations up to 5 μM", "description": "MCF-7 cells were seeded with medium supplemented with insulin (50 ng/mL) and 5% dextran-coated charcoal treated FBS rather than 10% FBS to remove remaining hormones. Aliquots (100 μL) of the cell suspension were seeded in 96-well plates (3000 cells/well). […] Cells were grown either in the absence or presence of the compounds over a period of 7 days. Quantification of cell growth was determined by using the CellTiter 96®Aqueous Solution Cell Proliferation Assay (Promega, Nepean, ON, Canada) following the manufacturer's instructions. To determine the proliferative (estrogenic) activity, the cells were grown in the absence (control fixed as 100%) or presence of the tested compounds at the indicated concentrations."}, "[4]": {"experiment": "Plasma concentration of inhibitor after a single subcutaneous injection", "conditions": "rat, in vivo, sc", "description": "Six week-old male Sprague-Dawley rats weighing approximately 220 g were obtained from Charles-River, Inc. (St-Constant, Qc., Canada). The animals were housed 3 per cage. A pharmacokinetic study was carried out following one subcutaneous (s.c.) injection of the inhibitor at one concentration (2.3 mg/kg of body weight in 0.5 mL of vehicle fluid). The inhibitor was first dissolved in ethanol (EtOH) and thereafter we added propylene glycol (PG) to obtain a final concentration of EtOH of 8%. During this experiment, the rats were housed individually and were fasted for 8 h before inhibitor injection but allowed free access to water. Blood samples for determination of inhibitor plasma concentration were collected at the jugular vein (0.4 mL by animal) at target intervals of 3, 7, 12 and 24 h post-dose for Compound V and 3 and 12 h for CC-156, from three rats per time point. After the collection at 7 h, a replacement fluid (0.9% sodium chloride injection USP) was injected in the rat. Blood samples were collected into Microvette potassium-EDTA (ethylenediamine tetraacetic acid)-coated tube (Sarstedt, Aktiegesellchaft & Co, Germany) and centrifuged at 3200 rpm for 10 minutes at 4° C. The plasma was collected and stored at −80° C. until analyzed by liquid chromatography/mass spectrometry/mass spectrometry (LC/MS/MS) analysis.\nThe concentration of the inhibitors (Compounds I and V) was determined by LC/MS/MS analysis using a procedure developed at CHUQ (CHUL)-Research Center (Québec, Qc, Canada). Briefly, for extraction from serum, 100 μL of serum sample is transferred to individual tubes and 600 μL of ammonium acetate (1 mM) is added. A methanolic solution (50 μL) containing a steroidal internal standard is then added to each tube. Samples are transferred on Strata-X SPE columns (Phenomenex, Torrance, Calif., USA), which have been conditioned with 2 mL of methanol and 2 mL of water. Each column is washed with 2 mL of methanol:water (10:90, v/v). The inhibitor is then eluted with 5 mL of methanol containing 5 mM ammonium acetate. Methanol is evaporated at 45° C. under inert atmosphere and the residue dissolved in 100 μL of methanol:water (85:15, v/v). For the steroid analysis, the HPLC system uses a 75×4.6-mm, 3 μm reversed-phase Luna Phenyl-Hexyl column (Phenomenex, Torrance, Calif., USA) at a flow rate of 0.8 mL/min. The inhibitor is detected using an API 3000 mass spectrometer, equipped with TurbolonSpray (Applied Biosystems, Canada). ESI in positive ion mode was used. The area under the curve (AUC) was calculated using the linear trapezoidal rule."}}, "note": "Like-named read-outs stand apart in the source and are kept apart here."}
{"molecule": "C[C@]12CC[C@@H]3c4ccc(O)cc4CC[C@H]3[C@@H]1C[C@H](Cc1cccc(C(N)=O)c1)[C@@H]2O", "note": "[Compound I, 16β-(m-carbamoylbenzyl)estradiol, reference compound]", "values": [{"measurement": "inhibition at 0.01 µM", "setting": "[1]; T47D, [14C]-E1 (60 nM) into [14C]-E2, T-47D intact cells, 0.01 μM", "result": 35, "unit": "%"}, {"measurement": "inhibition at 0.1 µM", "setting": "[1]; T47D, [14C]-E1 (60 nM) into [14C]-E2, T-47D intact cells, 0.1 μM, read-out: Inhibition % (0.1 μM)", "result": 66, "unit": "%"}, {"measurement": "IC50", "setting": "[2]; read-out: IC50 on CYP3A4", "result": "1520 ± 290", "unit": "nM"}, {"measurement": "estrogenic activity on MCF-7 cells (FIG. 1)", "setting": "[3]", "result": "strongly stimulated the estrogen sensitive MCF-7 cells"}, {"measurement": "time at which maximum plasma concentration (Cmax) was attained", "setting": "[4]; 2.3 mg/kg", "result": 3, "unit": "h"}]}
{"molecule": "C[C@]12CC[C@@H]3c4ccc(CCBr)cc4CC[C@H]3[C@@H]1C[C@H](Cc1cccc(C(N)=O)c1)[C@@H]2O", "note": "[Compound V, 3-{[(16β,17β)-3-(2-bromoethyl)-17-hydroxyestra-1(10),2,4-trien-16-yl]methyl}benzamide]", "values": [{"measurement": "inhibition at 0.01 µM", "setting": "[1]; T47D", "result": 23, "unit": "%"}, {"measurement": "inhibition at 0.1 µM", "setting": "[1]; T47D, read-out: Inhibition % (0.1 μM)", "result": 49, "unit": "%"}, {"measurement": "inhibition at 0.1 µM", "setting": "[1]; T47D, read-out: Inhibition (0.1 μM)", "result": 56, "unit": "%"}, {"measurement": "inhibition at 1 µM", "setting": "[1]; T47D, read-out: Inhibition (1 μM)", "result": 89, "unit": "%"}, {"measurement": "IC50", "setting": "[1]; T-47D intact cells, [14C]-E1 60 nM", "result": 68, "unit": "nM"}, {"measurement": "IC50", "setting": "[2]", "result": "4060 ± 570", "unit": "nM"}, {"measurement": "estrogenic activity on MCF-7 cells (FIG. 1)", "setting": "[3]", "result": "no estrogenicity"}, {"measurement": "concentration at 7 h", "setting": "[4]; male, Sprague-Dawley, s.c. 2.3 mg/kg, 7 h", "result": 73.8, "unit": "ng/mL"}, {"measurement": "concentration at 12 h", "setting": "[4]; male, Sprague-Dawley, s.c. 2.3 mg/kg, 12 h", "result": 50.7, "unit": "ng/mL"}, {"measurement": "concentration at 24 h", "setting": "[4]; male, Sprague-Dawley, s.c. 2.3 mg/kg, 24 h", "result": 11.7, "unit": "ng/mL"}, {"measurement": "AUC(0-t)", "setting": "[4]; male, Sprague-Dawley, s.c. 2.3 mg/kg, read-out: AUC0-24 h", "result": 1150, "unit": "ng·h/mL"}]}
